Test results from a melting point compilation (Tetko et al.; mined from patent text by program, amines drawn as free bases though some values may be those of a salt).

melting point [°C] | Structure (SMILES)
93 to 94 | COc1ccc(C(CCC(C)=O)C(=O)c2ccc(OCc3ccccc3)cc2)cc1 (stereo not drawn)
> 300 | CC1(C)C=Nc2cc3[nH]c(-c4ccncc4)cc3cc21
209 to 212 | O=C(O)[C@@]1(O)C[C@@H](O)[C@H](O)C2=C1CC(Cc1ccccc1)(Cc1ccccc1)S2
161 to 162 | CNC(=O)N(O)CCNC(=O)c1cccc(Oc2ccccc2)c1
168 to 169 | COC(=O)c1ccccc1NC(=O)CN1CCN(C(=O)c2ccc(OC)cc2)CC1
119 | N#Cc1cccc(NCCC(=O)O)c1
253 | Cn1nccc1C(=O)Nc1cc(Oc2ccc3nc(NC(=O)C4CC4)cn3n2)ccc1F
201 to 203 | COc1cc(Nc2nc3cccc(-c4cncc5ccccc45)c3o2)cc(OC)c1OC
224 | CC#CCOc1ccc(S(=O)(=O)C(C(=O)NO)C2CCN(C(=O)c3ccccc3)CC2)cc1 (stereo not drawn)
185 to 188 | CN(C(=O)CN(C(=O)CNC(=O)OC(C)(C)C)c1ccccc1O)c1ccccc1
236 to 240 | O=C1Cc2cc(NC(=O)C(=O)N3CCC(CCc4ccccc4)CC3)ccc2N1
131 | Cc1cccc(C)c1OCC(=O)NC(Cc1ccccc1)C(O)CC(N)Cc1ccccc1 (stereo not drawn)
111 to 112 | C1=CC2OC1c1cc3c(cc12)OCO3
230 | CCc1ccccc1NC=C1C(=O)N(c2ccc(NC(C)=O)cc2)N=C1C
102 to 110 | COc1c2ccccc2c(-c2cc(Br)c(O[C@H](Cc3ccccc3)C(=O)O)c(Br)c2)c2c1sc1ccccc12
252 to 255 | COCCNC(=O)c1cc(-c2ccccc2)c(=O)[nH]c1-c1c(Cl)cccc1C#N
206 to 208 | Cc1nc(-c2cccc(C(F)(F)F)c2)c2nc(-c3ccccc3)cc-2[nH]1
236 to 237 | CCC(C)(C)c1ccc2oc(-c3ccc(O)cc3)nc2c1
105 to 108 | Cc1cccc(N2C(=O)C(=CN(C)C)c3ccccc32)c1
179 to 187 | CCCCc1nc2ccccn2c(=O)c1-c1ccc(NC(=O)[C@@H]2CCCN2C(=O)OC(C)(C)C)cc1
141 to 142 | CCOC(=O)c1c(CCCn2cncn2)nc2cc(OC)c(OC)cc2c1-c1ccc(OC)c(OC)c1
171 to 172 | N#Cc1ccc2oc(CCc3ccc(C(=O)On4nnc5ccccc54)cc3)cc2c1
245 to 248 | O=C(O)c1ccc(CC(NC(=O)C(c2ccccc2)c2ccccc2)c2ccccc2)cc1 (stereo not drawn)
211 to 212 | CN(c1cccc2cc(C(=O)NCC3(SCc4ccccc4)CCC4(CC3)OCCO4)[nH]c12)S(=O)(=O)c1cccs1

melting point [°C] | Structure (SMILES)
238 to 239 | CNC(=O)CC1(CC(=O)O)c2ccccc2C(=O)c2ccccc21
186 to 188 | O=C(O)COc1cccc2c1CCc1sc(S(=O)(=O)C(c3ccc(F)cc3)c3ccc(F)cc3)nc1-2
95 | NCC1COc2cc(Cl)cc(-c3ccc(Cl)cc3C(F)(F)F)c2N1 (stereo not drawn)
73 to 75 | COC(=O)c1ccccc1-c1noc(-c2ccc(OC)cc2)n1
76.7 | N#CC(N)COc1ccc(Oc2ccccc2)cc1 (stereo not drawn)
173 | O=C(Cc1ccccc1)NC(C(=O)O)C(c1ccccc1)c1ccccc1 (stereo not drawn)
243 to 245 | Cc1ccc(NN2C=c3cc(-c4c(Cl)cccc4Cl)c(=O)n(C)c3=NC2)cc1
129 to 131 | CN(c1ccc(Cl)cc1)c1ncnc2cc(Cl)ccc12
182 to 183 | CCCCS(=O)(=O)Nc1cc(C(=O)Nc2ccccc2)ccc1OC
85.6 | O=[N+]([O-])c1ccccc1NCc1ccco1
112 | CC(C)C[C@@H](C(=O)N[C@@H](C(C)C)[C@H](O)c1c(-c2ccccc2)c1=O)N(C)C(=O)OCc1ccccc1
88 to 90 | COc1cccc(-c2cc(-c3ccc(-c4c(Cc5ccccc5)sc5ccccc45)cc3)cc(Br)c2OCC(=O)O)c1
133 to 134 | O=C(N[C@@H]1CCCC[C@H]1O)c1cnc(OCC(F)(F)F)c(-c2ccc(F)cc2)n1
122 to 124 | C#CCOc1ccc(CCNC(=O)C(=O)c2ccc(-c3ccc(Cl)cc3)cc2)cc1OC
266 to 271 | NC(C(=O)O)c1c(C(=O)O)csc1-c1ccccc1 (stereo not drawn)
99 to 105 | CC(C)(C)C(O)C(Oc1ccccc1)n1ccnc1 (stereo not drawn)
92 | O=C(Cl)c1ccc(C(=O)c2ccccc2)cc1
321 to 324 | COc1ccc2[nH]c3c(c2c1)C[C@@]1(C)C(=O)N(CCn2ccnc2)C(=O)N1[C@@H]3c1cccc(O)c1 (racemic)
184 to 186 | CCOC(=O)C(=CN(C)C)C(=O)c1cc(F)c(N2CCC(NC(C)=O)C2)nc1Nc1ccc(F)cc1F (stereo not drawn)
174 to 175 | CNC(=O)Cc1cc(=O)oc2cc(OCc3cccc(Cl)c3)ccc12
238 to 240 | O=C(NCc1ccc(Cl)cc1)c1cnc2sccc2c1O
202 to 204 | O=C(O)C1Oc2cc3onc(-c4ccccc4)c3cc2O1 (stereo not drawn)
128 to 129 | CCOC(=O)c1nc2c(Cl)cccc2n(-c2ccc(OC)cc2)c1=O
257 to 260 | CCOC(=O)C1=C(C)NC2=C(C(=O)OC2)C1c1cccc2ncc(-c3ccccc3)cc12 (stereo not drawn)

Continued, compound first:

Structure (SMILES) | melting point [°C]
COc1ccc2c(c1)CC(CNC(=O)Nc1c(C(C)C)cccc1C(C)C)CC2 (stereo not drawn) | 171 to 172
Cc1nc(N2CCC(NCc3ccc(F)cc3)C2=O)sc1C(=O)NCc1ccc(F)cc1 (stereo not drawn) | 123 to 124
C#Cc1cc(OC)c(OC)c(OC)c1 | 68 to 70
C1CC2CNCCNCCNCCNCC(C1)N2 | 90 to 90.5
COc1ccccc1OP(=O)(CN(CC#N)N=O)Oc1ccccc1OC | 83 to 85
CN1CN(C(=O)c2c(F)cccc2F)C(=O)N(c2ccc(S(=O)(=O)C(F)F)cc2F)C1 | 203 to 205
CC(C)(COC(=O)COc1ccc(C(=O)CN2Cc3cc(C(N)=S)ccc3C2=O)cc1)NS(=O)(=O)c1cccnc1 | 197 to 198
Cc1cc(-n2cncn2)c2cccc(OCc3c(Cl)ccc(S(=O)(=O)N4CCC[C@H]4C(=O)NCC4CCN(CCCO)CC4)c3Cl)c2n1 | 136
C[Si](C)(C)C#Cc1ccc([N+](=O)[O-])cc1 | 95 to 100
N#CC1=C(c2ccc(Cl)cc2)NC(C(F)(F)F)C1 (stereo not drawn) | 158 to 160
CC1(C)Oc2cc3nonc3cc2C(N2CCCC2=O)C1O (stereo not drawn) | 242 to 244
N#Cc1cc(F)c(-n2nc3ccc(Cl)cn3c2=O)cc1F | > 230
CCOC(=O)CN(CC=CC(=O)Nc1cc2c(Nc3ccc(F)c(Cl)c3)ncnc2cc1OCC1CC1)CCOC(C)=O | 90 to 92
Nc1cccc(C(=O)NCC23CC4CC(CC(C4)C2)C3)c1Cl | 154
CCC(=O)c1c(O)c(CNC(C)=O)cc2c1CCCC2 | 136 to 140
CCOC(=O)c1cnn(-c2ncc(Cl)cc2Cl)c1N | 98 to 101
O=C1c2ccc(Cl)cc2CC1Cl (stereo not drawn) | 63 to 66
CC(C)(C)c1cc(Cc2cc(C(C)(C)C)cc(C(C)(C)C)c2O)c(O)c(C(C)(C)C)c1 | 141 to 142
CCc1c2n(c3ccccc13)C(=O)C(=Cc1ncn(C(c3ccccc3)(c3ccccc3)c3ccccc3)c1C)CC2 | 217 to 220
O=C(O)CCCn1ccnc1 | 125 to 126
CS(=O)(=O)Nc1ccc(C(=O)c2ccc(Cl)cc2)cc1 | 198 to 200
CCNC(=O)c1ccc(N2CCNCC2)c(Cl)c1 | 117 to 119
Cc1ccc2c3c(c(=O)oc2c1)CN(CCN1CC2CCC(CC2)C1)CC3 | 155 to 157
COC(=O)c1c(C(F)F)nc(C(F)(F)F)c(C(=O)OC)c1O | 83 to 84.5
CCCc1nc2c(N)nc3cc(OCCCNS(C)(=O)=O)ccc3c2s1 | 168 to 171

Structure (SMILES) | melting point [°C]
CCOC(=O)CCc1cc(O)nn1CC(C)C | 102 to 103
CN1CC(Cl)CC2c3cccc4[nH]cc(c34)CC21 (stereo not drawn) | 195 to 197
COc1ccc(C2CN(C)C(=O)O2)cc1OC (stereo not drawn) | 132 to 133
CCC1=CC(C)(C)Oc2c(OC)cc(Cc3cnc(N)nc3N)cc21 | 256 to 257
Cn1cnc2c(ccc3[nH]cc(CCN)c32)c1=O | 279 to 285
O=C(O)COC1CCN(C(=O)CN2CCN(c3ccncc3)CC2)CC1 | 198 to 200
Cn1cc2c3c(ccc2n1)CCC3=CC#N | 189 to 192
CC(C)(S)CN1C(=O)NC(=O)C1=O | 168 to 170
S=c1[nH]ccn1CCc1cccs1 | 131 to 134
COc1cc(N(C)C(=O)CN2CCN(C)CC2)ccc1N | 115 to 118
CCOC(=O)c1ccc(C(C)(C)C(N)=O)cc1 | 104 to 109
N#Cc1nn(-c2c(Cl)cc(OC(F)(F)F)cc2Cl)cc1C(Cl)=C(Cl)Br | 143 to 144
Cc1cc(C)cc(NCc2ccc3nc(NCCCN4CCCCC4)n(Cc4nc(C)ccc4O)c3c2)c1 | 161
N#Cc1ccc2c(c1)CCC=C2c1cncs1 | 78 to 79
CC(CC(C(=O)N(C)C)(c1ccccc1)c1ccccc1)N1CCC(NCc2ccccc2)C(O)C1 (stereo not drawn) | 134
Cc1cccc(C)c1NC(=O)NO | 192 to 193
O=C(NC1CC1)c1ccc(F)c2c1CC(N(CCCc1c[nH]c3ccc(F)cc13)C1CCC1)CO2 (stereo not drawn) | 134
C#CCN1C(=O)COc2ccc(-n3c(=O)cc(C(F)(F)F)[nH]c3=O)cc21 | > 250
CCOP(=O)(OCC)c1nc(NC2CC(C)(C)NC(C)(C)C2)nc(NC2CC(C)(C)NC(C)(C)C2)n1 | 195
CCc1cn(C[C@@H](C)O)c2ccc(F)cc12 | 65 to 67
CCOC(=O)N1CCN(C(=O)/C=C/S(=O)(=O)c2ccccc2)CC1 | 116 to 117
Cc1ncc(CSSCc2cnc(C)c(O)c2CN(C)C)c(CN(C)C)c1O | 195 to 201
CN(CC[C@H]1CC[C@H](C(=O)O)CC1)C(=O)OC(C)(C)C | 212 to 214
COc1ncc(S(C)(=O)=O)cc1Br | 148 to 150
C=Cn1ccnc1C(O)(c1ccc(C(C)(C)C)cc1)c1ccc(C(C)(C)C)cc1 | 169 to 170
